According to ChEMBL document CHEMBL1141905, “3,4-disubstituted azetidinones as selective inhibitors of the cysteine protease cathepsin K. Exploring P3 elements for potency and selectivity” (Bioorg Med Chem Lett, 2005):

Tested on: not listed separately
Assay: Beta half life period
Assay type: ADME
Conditions: not given

Row | half-life [min] | Structure (SMILES)
1 | 21 | CN1CCN(c2nc(-c3ccc(C(=O)NC4(C(=O)N[C@@H]5C(=O)N[C@@H]5Oc5ccccc5)CCCCC4)cc3)cs2)CC1

Biological target: T1, Cathepsin K (Oryctolagus cuniculus) (UniProt P43236)
T1 sequence (whole entry): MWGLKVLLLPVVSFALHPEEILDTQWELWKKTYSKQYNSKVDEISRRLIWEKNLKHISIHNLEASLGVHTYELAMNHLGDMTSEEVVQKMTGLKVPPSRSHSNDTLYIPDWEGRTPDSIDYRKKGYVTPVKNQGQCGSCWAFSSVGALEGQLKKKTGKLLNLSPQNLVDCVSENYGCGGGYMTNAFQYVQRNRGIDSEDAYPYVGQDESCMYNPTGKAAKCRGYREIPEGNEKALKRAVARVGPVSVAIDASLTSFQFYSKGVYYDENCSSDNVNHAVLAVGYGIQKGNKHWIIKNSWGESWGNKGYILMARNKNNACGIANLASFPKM
Assay: Apparent inhibitory constant against rabbit cathepsin K
Conditions: not given

Row | Ki'' [nM] | Structure (SMILES)
2 | 0.25 | CC(=O)O[C@@H]1NC(=O)[C@H]1NC(=O)C1(NC(=O)c2ccc(-c3csc(NN4CCN(C)CC4)n3)cc2)CCCCC1
3 | 8.2 | CN1CCN(Nc2nc(-c3ccc(C(=O)NC4(C(=O)N[C@@H]5C(=O)N[C@@H]5Oc5ccccc5)CCCCC4)cc3)cs2)CC1
4 | 3.1 | CC(=O)O[C@@H]1NC(=O)[C@H]1NC(=O)C1(NC(=O)c2ccc(N(C)C)cc2)CCCCC1
5 | 2.6 | CC(=O)O[C@@H]1NC(=O)[C@H]1NC(=O)C1(NC(=O)c2ccc(-c3csc(N(C)C)n3)cc2)CCCCC1
6 | 57 | CC(=O)O[C@@H]1NC(=O)[C@H]1NC(=O)C1(NC(=O)OCc2ccccc2)CCCCC1
7 | 12 | CSc1ccc(C(=O)NC2(C(=O)N[C@@H]3C(=O)N[C@H]3OC(C)=O)CCCCC2)cc1
8 | 0.26 | CN1CCN(Nc2nc(-c3ccc(C(=O)NC4(C(=O)N[C@@H]5C(=O)N[C@H]5Oc5ccccc5)CCCCC4)cc3)cs2)CC1
9 | 1.1 | CC(=O)O[C@@H]1NC(=O)[C@H]1NC(=O)C1(NC(=O)c2ccc(-c3csc(N4CCN(C)CC4)n3)cc2)CCCCC1
10 | 18 | CN(C)c1nc(-c2ccc(C(=O)NC3(C(=O)N[C@@H]4C(=O)N[C@H]4Oc4ccccc4)CCCCC3)cc2)cs1
11 | 1.1 | CC(=O)O[C@@H]1NC(=O)[C@H]1NC(=O)C1(NC(=O)c2ccc(N3CCN(C)CC3)cc2)CCCCC1
12 | 5 | CC(=O)O[C@@H]1NC(=O)[C@H]1NC(=O)C1(NC(=O)c2ccc(N3CCOCC3)cc2)CCCCC1
13 | 7.5 | CC(=O)O[C@@H]1NC(=O)[C@H]1NC(=O)C1(NC(=O)c2ccc(-c3csc(CN4CCOCC4)n3)cc2)CCCCC1
14 | 92 | CC(=O)O[C@@H]1NC(=O)[C@H]1NC(=O)C1(NC(=O)c2ccc(Cl)cc2)CCCCC1

Tested on: not listed separately
Assay: Volume of distribution following intravenous administration evaluated as moderate
Assay type: ADME, organism-based
Conditions: in vivo

Row | Vd [L/kg] | Structure (SMILES)
15 | 1.6 | CN1CCN(c2nc(-c3ccc(C(=O)NC4(C(=O)N[C@@H]5C(=O)N[C@@H]5Oc5ccccc5)CCCCC4)cc3)cs2)CC1

Tested on: not listed separately
Assay: Clearance following intravenous administration evaluated as high
Assay type: ADME, organism-based
Conditions: in vivo

Row | clearance [mL/min/kg] | Structure (SMILES)
16 | 92 | CN1CCN(c2nc(-c3ccc(C(=O)NC4(C(=O)N[C@@H]5C(=O)N[C@@H]5Oc5ccccc5)CCCCC4)cc3)cs2)CC1

Biological target: Procathepsin L (Homo sapiens) (UniProt P07711);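 further: apparent inhibition constant, determined on the human enzyme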
Conditions: not given

Procathepsin L (Homo sapiens), sequence (P07711 114-333 limits assumed): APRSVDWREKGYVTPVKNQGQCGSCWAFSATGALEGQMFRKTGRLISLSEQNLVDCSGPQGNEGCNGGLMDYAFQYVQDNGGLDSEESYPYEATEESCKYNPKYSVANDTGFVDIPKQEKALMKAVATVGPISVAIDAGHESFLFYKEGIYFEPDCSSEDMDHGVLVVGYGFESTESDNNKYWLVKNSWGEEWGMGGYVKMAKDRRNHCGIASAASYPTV

Row | Ki'' [nM] | Structure (SMILES)
17 | 2100 | CC(=O)O[C@@H]1NC(=O)[C@H]1NC(=O)C1(NC(=O)c2ccc(-c3csc(NN4CCN(C)CC4)n3)cc2)CCCCC1
18 | 8.2 | CN1CCN(Nc2nc(-c3ccc(C(=O)NC4(C(=O)N[C@@H]5C(=O)N[C@@H]5Oc5ccccc5)CCCCC4)cc3)cs2)CC1
19 | 2100 | CC(=O)O[C@@H]1NC(=O)[C@H]1NC(=O)C1(NC(=O)c2ccc(N(C)C)cc2)CCCCC1
20 | 390 | CC(=O)O[C@@H]1NC(=O)[C@H]1NC(=O)C1(NC(=O)c2ccc(-c3csc(N(C)C)n3)cc2)CCCCC1
21 | 6800 | CC(=O)O[C@@H]1NC(=O)[C@H]1NC(=O)C1(NC(=O)OCc2ccccc2)CCCCC1
22 | 6400 | CSc1ccc(C(=O)NC2(C(=O)N[C@@H]3C(=O)N[C@H]3OC(C)=O)CCCCC2)cc1
23 | 310 | CN1CCN(Nc2nc(-c3ccc(C(=O)NC4(C(=O)N[C@@H]5C(=O)N[C@H]5Oc5ccccc5)CCCCC4)cc3)cs2)CC1
24 | 3300 | CC(=O)O[C@@H]1NC(=O)[C@H]1NC(=O)C1(NC(=O)c2ccc(-c3csc(N4CCN(C)CC4)n3)cc2)CCCCC1
25 | 89 | CN(C)c1nc(-c2ccc(C(=O)NC3(C(=O)N[C@@H]4C(=O)N[C@H]4Oc4ccccc4)CCCCC3)cc2)cs1
26 | 1400 | CC(=O)O[C@@H]1NC(=O)[C@H]1NC(=O)C1(NC(=O)c2ccc(N3CCN(C)CC3)cc2)CCCCC1
27 | 19000 | CC(=O)O[C@@H]1NC(=O)[C@H]1NC(=O)C1(NC(=O)c2ccc(N3CCOCC3)cc2)CCCCC1
28 | 11000 | CC(=O)O[C@@H]1NC(=O)[C@H]1NC(=O)C1(NC(=O)c2ccc(-c3csc(CN4CCOCC4)n3)cc2)CCCCC1
29 | 8200 | CC(=O)O[C@@H]1NC(=O)[C@H]1NC(=O)C1(NC(=O)c2ccc(Cl)cc2)CCCCC1

Tested on: not listed separately
Assay: Alpha half life period
Assay type: ADME
Conditions: not given

Row | half-life [min] | Structure (SMILES)
30 | 2 | CN1CCN(c2nc(-c3ccc(C(=O)NC4(C(=O)N[C@@H]5C(=O)N[C@@H]5Oc5ccccc5)CCCCC4)cc3)cs2)CC1

Tested on: not listed separately
Assay: Mean residence time by intravenous administration
Assay type: ADME, organism-based
Conditions: in vivo

Row | MRT [min] | Structure (SMILES)
31 | 17 | CN1CCN(c2nc(-c3ccc(C(=O)NC4(C(=O)N[C@@H]5C(=O)N[C@@H]5Oc5ccccc5)CCCCC4)cc3)cs2)CC1

Biological target: Cathepsin S (Homo sapiens) (UniProt P25774)
Assay: Apparent inhibitory constant against human cathepsin S
Conditions: not given

Cathepsin S (Homo sapiens), sequence (P25774 115-331 limits assumed): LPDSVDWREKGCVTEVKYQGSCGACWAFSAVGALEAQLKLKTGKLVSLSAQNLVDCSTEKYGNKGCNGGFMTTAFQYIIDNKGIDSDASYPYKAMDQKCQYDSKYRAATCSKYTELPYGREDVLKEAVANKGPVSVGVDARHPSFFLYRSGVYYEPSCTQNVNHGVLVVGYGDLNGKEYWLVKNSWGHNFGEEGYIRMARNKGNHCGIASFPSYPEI

Row | Ki'' [nM] | Structure (SMILES)
32 | 8800 | CC(=O)O[C@@H]1NC(=O)[C@H]1NC(=O)C1(NC(=O)c2ccc(-c3csc(NN4CCN(C)CC4)n3)cc2)CCCCC1
33 | 150000 | CN1CCN(Nc2nc(-c3ccc(C(=O)NC4(C(=O)N[C@@H]5C(=O)N[C@@H]5Oc5ccccc5)CCCCC4)cc3)cs2)CC1
34 | 2800 | CC(=O)O[C@@H]1NC(=O)[C@H]1NC(=O)C1(NC(=O)c2ccc(N(C)C)cc2)CCCCC1
35 | 7700 | CC(=O)O[C@@H]1NC(=O)[C@H]1NC(=O)C1(NC(=O)c2ccc(-c3csc(N(C)C)n3)cc2)CCCCC1
36 | 950 | CC(=O)O[C@@H]1NC(=O)[C@H]1NC(=O)C1(NC(=O)OCc2ccccc2)CCCCC1
37 | 3500 | CSc1ccc(C(=O)NC2(C(=O)N[C@@H]3C(=O)N[C@H]3OC(C)=O)CCCCC2)cc1
38 | 140000 | CN1CCN(Nc2nc(-c3ccc(C(=O)NC4(C(=O)N[C@@H]5C(=O)N[C@H]5Oc5ccccc5)CCCCC4)cc3)cs2)CC1
39 | 8500 | CC(=O)O[C@@H]1NC(=O)[C@H]1NC(=O)C1(NC(=O)c2ccc(-c3csc(N4CCN(C)CC4)n3)cc2)CCCCC1
40 | 10000 | CN(C)c1nc(-c2ccc(C(=O)NC3(C(=O)N[C@@H]4C(=O)N[C@H]4Oc4ccccc4)CCCCC3)cc2)cs1
41 | 8800 | CC(=O)O[C@@H]1NC(=O)[C@H]1NC(=O)C1(NC(=O)c2ccc(N3CCN(C)CC3)cc2)CCCCC1
42 | 14000 | CC(=O)O[C@@H]1NC(=O)[C@H]1NC(=O)C1(NC(=O)c2ccc(N3CCOCC3)cc2)CCCCC1
43 | 12000 | CC(=O)O[C@@H]1NC(=O)[C@H]1NC(=O)C1(NC(=O)c2ccc(-c3csc(CN4CCOCC4)n3)cc2)CCCCC1
44 | 3400 | CC(=O)O[C@@H]1NC(=O)[C@H]1NC(=O)C1(NC(=O)c2ccc(Cl)cc2)CCCCC1

Biological target: Cathepsin B (Homo sapiens) (UniProt P07858)
Assay: Apparent inhibitory constant against human cathepsin B
Conditions: not given

Row | Ki'' [nM] | Structure (SMILES)
45 | 91 | CC(=O)O[C@@H]1NC(=O)[C@H]1NC(=O)C1(NC(=O)c2ccc(-c3csc(NN4CCN(C)CC4)n3)cc2)CCCCC1
46 | 5200 | CN1CCN(Nc2nc(-c3ccc(C(=O)NC4(C(=O)N[C@@H]5C(=O)N[C@@H]5Oc5ccccc5)CCCCC4)cc3)cs2)CC1
47 | 530 | CC(=O)O[C@@H]1NC(=O)[C@H]1NC(=O)C1(NC(=O)c2ccc(N(C)C)cc2)CCCCC1
48 | 1400 | CC(=O)O[C@@H]1NC(=O)[C@H]1NC(=O)C1(NC(=O)c2ccc(-c3csc(N(C)C)n3)cc2)CCCCC1
49 | 4300 | CC(=O)O[C@@H]1NC(=O)[C@H]1NC(=O)C1(NC(=O)OCc2ccccc2)CCCCC1
50 | 1200 | CSc1ccc(C(=O)NC2(C(=O)N[C@@H]3C(=O)N[C@H]3OC(C)=O)CCCCC2)cc1
51 | 6000 | CN1CCN(Nc2nc(-c3ccc(C(=O)NC4(C(=O)N[C@@H]5C(=O)N[C@H]5Oc5ccccc5)CCCCC4)cc3)cs2)CC1
52 | 940 | CC(=O)O[C@@H]1NC(=O)[C@H]1NC(=O)C1(NC(=O)c2ccc(-c3csc(N4CCN(C)CC4)n3)cc2)CCCCC1
53 | 25000 | CN(C)c1nc(-c2ccc(C(=O)NC3(C(=O)N[C@@H]4C(=O)N[C@H]4Oc4ccccc4)CCCCC3)cc2)cs1
54 | 490 | CC(=O)O[C@@H]1NC(=O)[C@H]1NC(=O)C1(NC(=O)c2ccc(N3CCN(C)CC3)cc2)CCCCC1
55 | 980 | CC(=O)O[C@@H]1NC(=O)[C@H]1NC(=O)C1(NC(=O)c2ccc(N3CCOCC3)cc2)CCCCC1
56 | 1700 | CC(=O)O[C@@H]1NC(=O)[C@H]1NC(=O)C1(NC(=O)c2ccc(-c3csc(CN4CCOCC4)n3)cc2)CCCCC1
57 | 2100 | CC(=O)O[C@@H]1NC(=O)[C@H]1NC(=O)C1(NC(=O)c2ccc(Cl)cc2)CCCCC1
